Measured values: PubChem BioAssay (NCI)
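1) Cells in 96-well plates. 2) Compound, 48 h, 5 concentrations. 3) Linear interpolation between surrounding doses. 4) Unreached endpoint = highest concentration. At the TGI there is no net growth.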

Tests used:
Assay in all cases: NCI tumour cell line growth inhibition, 48 h
HOP-62 NSCLC = test system: HOP-62 NSCLC
SNB-75 CNS = test system: SNB-75 CNS
SF-295 CNS = test system: SF-295 CNS
MALME-3M melanoma = test system: MALME-3M melanoma
TK-10 renal = test system: TK-10 renal
DMS 273 small cell lung = test system: DMS 273 small cell lung
SK-MEL-28 melanoma = test system: SK-MEL-28 melanoma
RXF 393 renal = test system: RXF 393 renal
HCT-116 colon = test system: HCT-116 colon
A498 renal = test system: A498 renal
COLO 205 colon = test system: COLO 205 colon
HL-60(TB) leukemia = test system: HL-60(TB) leukemia
IGROV1 ovarian = test system: IGROV1 ovarian
XF 498 CNS = test system: XF 498 CNS
LXFL 529 NSCLC = test system: LXFL 529 NSCLC
SNB-78 CNS = test system: SNB-78 CNS
KM12 colon = test system: KM12 colon
UACC-62 melanoma = test system: UACC-62 melanoma
SK-MEL-5 melanoma = test system: SK-MEL-5 melanoma
UO-31 renal = test system: UO-31 renal
SW-620 colon = test system: SW-620 colon
EKVX NSCLC = test system: EKVX NSCLC
SF-539 CNS = test system: SF-539 CNS
U251 CNS = test system: U251 CNS
DLD-1 colon = test system: DLD-1 colon
M19-MEL melanoma = test system: M19-MEL melanoma
OVCAR-3 ovarian = test system: OVCAR-3 ovarian
OVCAR-8 ovarian = test system: OVCAR-8 ovarian
HT29 colon = test system: HT29 colon
OVCAR-5 ovarian = test system: OVCAR-5 ovarian
HCT-15 colon = test system: HCT-15 colon
SNB-19 CNS = test system: SNB-19 CNS
K-562 leukemia = test system: K-562 leukemia
KM20L2 colon = test system: KM20L2 colon
UACC-257 melanoma = test system: UACC-257 melanoma
NCI-H23 lung = test system: NCI-H23 lung
SK-OV-3 ovarian = test system: SK-OV-3 ovarian
SN12C renal = test system: SN12C renal
SF-268 CNS = test system: SF-268 CNS
CCRF-CEM leukemia = test system: CCRF-CEM leukemia
OVCAR-4 ovarian = test system: OVCAR-4 ovarian
DMS 114 small cell lung = test system: DMS 114 small cell lung
NCI-H226 lung = test system: NCI-H226 lung
786-0 renal = test system: 786-0 renal
RXF-631 renal = test system: RXF-631 renal
M14 melanoma = test system: M14 melanoma
CAKI-1 renal = test system: CAKI-1 renal
ACHN renal = test system: ACHN renal
SR leukemia = test system: SR leukemia
MOLT-4 leukemia = test system: MOLT-4 leukemia
LOX IMVI melanoma = test system: LOX IMVI melanoma
HCC-2998 colon = test system: HCC-2998 colon
RPMI-8226 leukemia = test system: RPMI-8226 leukemia
NCI-H460 lung = test system: NCI-H460 lung
NCI-H522 lung = test system: NCI-H522 lung
A549 NSCLC = test system: A549 NSCLC
HOP-92 NSCLC = test system: HOP-92 NSCLC
P388 leukemia = test system: P388 leukemia
P388/ADR leukemia = test system: P388/ADR leukemia
SN12K1 renal = test system: SN12K1 renal
MCF7 breast = test system: MCF7 breast
HOP-18 NSCLC = test system: HOP-18 NSCLC
SK-MEL-2 melanoma = test system: SK-MEL-2 melanoma
NCI/ADR-RES ovarian = test system: NCI/ADR-RES ovarian

Measured: TGI

Cc1cc(C)nc(NS(=O)(=O)c2ccc(Nc3c4ccc(Cl)cc4nc4c(C(=O)NCCN(C)C)cccc34)cc2)n1
not listed: P388 leukemia | P388/ADR leukemia | SN12K1 renal | MCF7 breast | HOP-18 NSCLC | SK-MEL-2 melanoma | NCI/ADR-RES ovarian
> 100 µM: all other assays above

CC(=O)NC(Cc1ccsc1)C(=O)O (centres undefined)
not listed: TK-10 renal | LXFL 529 NSCLC | 786-0 renal | RXF-631 renal | M14 melanoma | ACHN renal | SR leukemia
> 100 µM: all other assays above
